{
  "source": "patent US20250213701A1",
  "about": "“MEDICAMENT FOR TREATING HUMAN TUMOR BASED ON ERF3A-TARGETING PROTEOLYSIS MECHANISM” (SUZHOU DEGEN BIO-MEDICAL CO., LTD., priority 2022, published 2025)",
  "format_in_all_cases": "cell-based",
  "conditions_in_all_cases": "Homo sapiens, 72 h, 3 days, read-out: Inhibition rate",
  "key": {"Hep 3B2.1-7 cells": {"test_system": "Hep 3B2.1-7 cells", "assay": "Anti-proliferative toxicity of C63 in tumor cell lines (CCK8): Hep 3B2.1-7", "method": "(§1) Example 83: Detection of Anti-Proliferative Toxicity of C63 in Some Tumor Cell Lines\nHep3B2.1-7 cells (purchased from the Cell Bank of the Chinese Academy of Sciences, Cat. No. TCHu106) were subcultured in a culture medium (MEM medium+1% penicillin-streptomycin dual-antibiotic solution+10% fetal bovine serum) in an incubator at 5% carbon dioxide and 37° C.\nHep 3B2.1-7 cells were seeded at 2000 cells/well (90 μL) on a 96-well plate and cultured for 24 h.\n(§2) 10 mM compound stock solutions were prepared in DMSO.\n(§3) The compound stock solution was diluted with DMSO to give DMSO solutions 1-9 at concentrations of 0 μM, 2500 μM, 500 μM, 100 μM, 20 μM, 4 μM, 0.8 μM, 0.16 μM, and 0.032 μM.\n(§4) 2 μL of each of solutions 1-9 was added to 98 μL of the medium to give mixed solutions 11-19 of the compound and the medium.\n(§5) 10 μL of each of solutions 11-19 was added to the above cell seed solution to give a total volume of 100 μL (90 μL+10 μL).\n(§6) The concentrations of the compound in the wells were 0 μM, 5.0 μM, 1.0 μM, 0.2 μM, 0.04 μM, 0.008 μM, 0.0016 μM, 0.00032 μM, and 0.000064 μM. All concentrations were in triplicate.\n(§7) After the above-treated cells were cultured for 3 days, 10 μL of the CCK8 solution (DOJINDO, Cat. No. PF725) was added to each well. The plate was incubated in an incubator at 37° C. for 1-4 h and then detected on a microplate reader for the reading at 450 nm."}, "HL-60 cells": {"test_system": "HL-60 cells", "assay": "Anti-proliferative toxicity of C63 in tumor cell lines (CCK8): HL-60", "method": "as §1\nHL-60 cells (purchased from the Cell Bank of the Chinese Academy of Sciences, Cat. No. TCHu23) were subcultured in a culture medium (IMDM medium+1% penicillin-streptomycin dual-antibiotic solution+20% fetal bovine serum) in an incubator at 5% carbon dioxide and 37° C.\nHL-60 cells were seeded at 20000 cells/well (90 μL) on a 96-well plate and cultured for 24 h.\nas §2, §3, §4, §5, §6, §7"}, "HuH-7 cells": {"test_system": "HuH-7 cells", "assay": "Anti-proliferative toxicity of C63 in tumor cell lines (CCK8): HuH-7", "method": "as §1\nHuH-7 cells (purchased from the Cell Bank of the Chinese Academy of Sciences, Cat. No. SCSP-526) were subcultured in a culture medium (DMEM medium+[…] penicillin-streptomycin dual-antibiotic solution+10% fetal bovine serum) in an incubator at […] and 37° C.\nHuH-7 cells were seeded at 5000 cells/well (90 μL) on a 96-well plate and cultured for 24 h.\nas §2, §3, §4, §5, §6, §7"}},
  "data": [
    {"compound": "C[C@]12C=CC(=O)N[C@@H]1CC[C@@H]1[C@@H]2CC[C@]2(C)[C@@H](C(=O)Nc3cccc(N[C@@H]4CCC[C@@H](Nc5cccc6c5C(=O)N([C@H]5CCC(=O)NC5=O)C6=O)C4)c3)CC[C@@H]12", "note": "[C63, N-(3-(N—(N-(4-(2-(3S-(2,6-dioxopiperidine))-isoindole-1,3-dione))-1R,3R-cyclohexanediamine))phenyl)-3-oxo-4-aza-5α-androst-1-ene-17β-carboxamide]", "values": [
      {"measurement": "inhibition at 64 pM", "setting": "Hep 3B2.1-7 cells; 0.000064 μM", "result": 77.5, "unit": "%"},
      {"measurement": "inhibition at 0.00032 µM", "setting": "Hep 3B2.1-7 cells; 0.000320 μM", "result": 90.6, "unit": "%"},
      {"measurement": "inhibition at 0.0016 µM", "setting": "Hep 3B2.1-7 cells; 0.001600 μM", "result": 90.2, "unit": "%"},
      {"measurement": "inhibition at 0.008 µM", "setting": "Hep 3B2.1-7 cells; 0.008000 μM", "result": 90.4, "unit": "%"},
      {"measurement": "inhibition at 0.04 µM", "setting": "Hep 3B2.1-7 cells; 0.040000 μM", "result": 90.7, "unit": "%"},
      {"measurement": "inhibition at 0.2 µM", "setting": "Hep 3B2.1-7 cells; 0.200000 μM", "result": 89.6, "unit": "%"},
      {"measurement": "inhibition at 1 µM", "setting": "Hep 3B2.1-7 cells; 1.000000 μM", "result": 90.5, "unit": "%"},
      {"measurement": "inhibition at 5 µM", "setting": "Hep 3B2.1-7 cells; 5.000000 μM", "result": 88.8, "unit": "%"},
      {"measurement": "inhibition at 64 pM", "setting": "HL-60 cells; 0.000064 μM", "result": 73.5, "unit": "%"},
      {"measurement": "inhibition at 0.00032 µM", "setting": "HL-60 cells; 0.000320 μM", "result": 80.2, "unit": "%"},
      {"measurement": "inhibition at 0.0016 µM", "setting": "HL-60 cells; 0.001600 μM", "result": 89.5, "unit": "%"},
      {"measurement": "inhibition at 0.008 µM", "setting": "HL-60 cells; 0.008000 μM", "result": 90.7, "unit": "%"},
      {"measurement": "inhibition at 0.04 µM", "setting": "HL-60 cells; 0.040000 μM", "result": 92.4, "unit": "%"},
      {"measurement": "inhibition at 0.2 µM", "setting": "HL-60 cells; 0.200000 μM", "result": 94.3, "unit": "%"},
      {"measurement": "inhibition at 1 µM", "setting": "HL-60 cells; 1.000000 μM", "result": 91.6, "unit": "%"},
      {"measurement": "inhibition at 5 µM", "setting": "HL-60 cells; 5.000000 μM", "result": 87.5, "unit": "%"},
      {"measurement": "inhibition at 64 pM", "setting": "HuH-7 cells; 0.000064 μM", "result": 13.1, "unit": "%"},
      {"measurement": "inhibition at 0.00032 µM", "setting": "HuH-7 cells; 0.000320 μM", "result": 59.9, "unit": "%"},
      {"measurement": "inhibition at 0.0016 µM", "setting": "HuH-7 cells; 0.001600 μM", "result": 77.1, "unit": "%"},
      {"measurement": "inhibition at 0.008 µM", "setting": "HuH-7 cells; 0.008000 μM", "result": 79.3, "unit": "%"},
      {"measurement": "inhibition at 0.04 µM", "setting": "HuH-7 cells; 0.040000 μM", "result": 78.3, "unit": "%"},
      {"measurement": "inhibition at 0.2 µM", "setting": "HuH-7 cells; 0.200000 μM", "result": 78.3, "unit": "%"},
      {"measurement": "inhibition at 1 µM", "setting": "HuH-7 cells; 1.000000 μM", "result": 75.1, "unit": "%"},
      {"measurement": "inhibition at 5 µM", "setting": "HuH-7 cells; 5.000000 μM", "result": 73.1, "unit": "%"}
    ]}
  ]
}
